This note sets out measurements from ChEMBL document CHEMBL4483862, “Open-source discovery of chemical leads for next-generation chemoprotective antimalarials” (2018).

Some results are limits rather than exact numbers.

For the assay, the system named is Plasmodium berghei. In words: Luciferase/luciferin-expressing antifolate-resistant parasites were used to infect a culture of HepG2 cells that were pre-incubated with compounds. Infected hepatocytes emit light due to the luciferase reaction. Assay results are presented as the percent inhibition of light emission compared to control. […]. The format is functional. To be noted: sporozoite; for IC90: read-out: LUCIFERASE INFECTION ASSAY - IC90.

[1] abbreviates: read-out: LUCIFERASE INFECTION ASSAY - IC50.

On to `CCOC(=O)C1=C(C)NC(C)=C(C(=O)OCC)C1c1ccc(Cl)cc1Cl`, for which the concentration for an effect of 90% (IC90) was > 8.29 µM. In addition, under “PBLUC_HILL_SLOPE 1.65, PBLUC_R_SQUARED 0.211, read-out: LUCIFERASE INFECTION ASSAY - IC50”, the IC50 was > 8.29 µM.
Turning to `NC(=O)c1ccsc1NC(=O)Cc1coc2ccc3ccccc3c12`, the IC90 was > 10 µM. In addition, the IC50 (FFLUC_HILL_SLOPE 2.43, FFLUC_R_SQUARED 0.812, HEPG2TOX_HILL_SLOPE 2.74, HEPG2TOX_R_SQUARED 0.883, PBLUC_HILL_SLOPE 2.33, PBLUC_R_SQUARED 0.39, read-out: LUCIFERASE INFECTION ASSAY - IC50) was found to be 5.74 µM.
Take `FC(F)(F)c1nc2ccccc2nc1N/N=C/c1ccc(Cl)cc1`: the IC90 was determined as 9.28 µM. Further, the IC50 (HEPG2TOX_HILL_SLOPE 7.63, HEPG2TOX_R_SQUARED 0.926, PBLUC_HILL_SLOPE 14.9, PBLUC_R_SQUARED 0.207, read-out: LUCIFERASE INFECTION ASSAY - IC50) amounted to 8 µM.
In the case of `CN1/C(=C\C=N\NC(=O)c2cccnc2)C(C)(C)c2ccccc21`, the IC90 is > 10 µM. The 50% inhibitory concentration (IC50) (PBLUC_HILL_SLOPE 4.32, PBLUC_R_SQUARED 0.562, read-out: LUCIFERASE INFECTION ASSAY - IC50) came to 7.23 µM.
For the molecule `OCc1ccc(-c2ccc3ncc(-c4cccc(CO)c4)n3n2)cc1`, the IC90 was determined as 2.83 µM. Moreover, where the note is “HEPG2TOX_HILL_SLOPE 2.34, HEPG2TOX_R_SQUARED 0.973, PBLUC_HILL_SLOPE 2.94, PBLUC_R_SQUARED 0.59, read-out: LUCIFERASE INFECTION ASSAY - IC50”, the IC50 is 1.34 µM.
In the case of `O=c1c2ccccc2nnn1CSc1nc2ccccc2c(=O)n1CCC1=CCCCC1`, the IC90 turned out to be 9.59 µM. For the same molecule, the IC50 (HEPG2TOX_HILL_SLOPE 2.76, HEPG2TOX_R_SQUARED 0.854, PBLUC_HILL_SLOPE 2.95, PBLUC_R_SQUARED 0.421, read-out: LUCIFERASE INFECTION ASSAY - IC50) stood at 4.55 µM.
Turning to `O=C(Nc1ccc(CN2CCCC2)cc1)c1ccc(-n2cnc3ccccc32)cc1`, the IC90 was > 10 µM. The IC50 (HEPG2TOX_HILL_SLOPE 1.93, HEPG2TOX_R_SQUARED 0.859, PBLUC_HILL_SLOPE 3.59, PBLUC_R_SQUARED 0.621, read-out: LUCIFERASE INFECTION ASSAY - IC50) was 5.74 µM.
With `CCCCC(CC)Cn1c(SCc2nc(N)nc(N)n2)nnc1-c1ccc(Cl)cc1` (centres undefined), the 90% effect concentration (IC90) is > 10 µM. Moreover, the half-maximal inhibitory concentration (IC50) under setting [1] was > 10 µM.
`CCOC(=O)c1c(/C=C/C(=O)Nc2nc(C)cs2)c(C)n(CC)c1C`: the IC90 is > 10 µM. Further, the IC50 (PBLUC_HILL_SLOPE 0.644, PBLUC_R_SQUARED 0.0145, read-out: LUCIFERASE INFECTION ASSAY - IC50) is > 10 µM.
Regarding `Cc1nc2c(/C(N)=N/OCc3cccc(Cl)c3)cnn2c(C)c1C`, the concentration for an effect of 90% (IC90) was > 9.6 µM. Also, the IC50 under setting [1] was > 9.6 µM.
For `CCOC(=O)c1cc(C#N)c(SCC(=O)Nc2ccccc2CC)nc1C`, the IC90 was > 10 µM. Moreover, the IC50 under setting [1] is > 10 µM.
Turning to `CCOC(=O)c1c(-c2ccc(Cl)cc2)csc1NC(=O)CSc1nc2c(c(CC)c1C#N)C(=O)CC(C)(C)C2`, the 90% effect concentration (IC90) was > 10 µM. For the setting “FFLUC_HILL_SLOPE 17.7, FFLUC_R_SQUARED 0.746, PBLUC_HILL_SLOPE 12.9, PBLUC_R_SQUARED 0.506, read-out: LUCIFERASE INFECTION ASSAY - IC50”, the IC50 worked out at 9.02 µM.
Consider `COc1ccccc1-n1c(C)cc(/C=C(\C#N)c2nnc3n2CCCCC3)c1C`, for which the IC90 is > 10 µM. Besides, the IC50 (PBLUC_HILL_SLOPE 15.5, PBLUC_R_SQUARED 0.0701, read-out: LUCIFERASE INFECTION ASSAY - IC50) amounted to 9.71 µM.
Consider `Cc1cc(Nc2ccc3c(=O)c(-c4c(F)cccc4Cl)c(C)oc3c2)no1`, for which the IC90 is > 10 µM. The concentration for half-maximal inhibition (IC50) (HEPG2TOX_HILL_SLOPE 11.5, HEPG2TOX_R_SQUARED 0.0504, PBLUC_HILL_SLOPE 0.784, PBLUC_R_SQUARED 0.684, read-out: LUCIFERASE INFECTION ASSAY - IC50) amounted to 1.11 µM.
With `O=C1C2=C(Nc3[nH]c(=O)[nH]c(=O)c3C2c2cccs2)c2ccccc21` (centres undefined), the IC90 is > 10 µM. Further, the IC50 (HEPG2TOX_HILL_SLOPE 0.543, HEPG2TOX_R_SQUARED 0.515, read-out: LUCIFERASE INFECTION ASSAY - IC50) is > 10 µM.
`N#Cc1ccc(NC(=O)Cn2ncc(Cl)c(Cl)c2=O)cc1`: the IC90 came to 5.23 µM. Besides, the IC50 (HEPG2TOX_HILL_SLOPE 73.2, HEPG2TOX_R_SQUARED 0.451, PBLUC_HILL_SLOPE 8.64, PBLUC_R_SQUARED 0.375, read-out: LUCIFERASE INFECTION ASSAY - IC50) stood at 4.06 µM.
Consider `CN(Cc1nc2ccccc2s1)Cn1cnc2c(=O)n(C)c(=O)n(C)c21`, for which the IC90 is > 10 µM. Further, the half-maximal inhibitory concentration (IC50) (PBLUC_HILL_SLOPE 0.862, PBLUC_R_SQUARED 0.121, read-out: LUCIFERASE INFECTION ASSAY - IC50) was 9.69 µM.
As to `CC(=O)N1CCc2cc(S(=O)(=O)Nc3ccc(Cl)cc3)ccc21`, the IC90 was > 9.41 µM. Besides, the IC50 (PBLUC_HILL_SLOPE 0.924, PBLUC_R_SQUARED 0.105, read-out: LUCIFERASE INFECTION ASSAY - IC50) was > 9.41 µM.
In the case of `O=C(Nc1nc2ccccc2[nH]1)c1oc2ccccc2c1CSCc1ccccc1`, the IC90 came out at 5.1 µM. Further, the IC50 (HEPG2TOX_HILL_SLOPE 3.05, HEPG2TOX_R_SQUARED 0.924, PBLUC_HILL_SLOPE 8.31, PBLUC_R_SQUARED 0.524, read-out: LUCIFERASE INFECTION ASSAY - IC50) worked out at 3.92 µM.
On to `c1ccc(-c2cn3nc(N4CCN(Cc5cn6ccccc6n5)CC4)sc3n2)cc1`, for which the IC90 is 6.12 µM. Besides, under “FFLUC_HILL_SLOPE 1.63, FFLUC_R_SQUARED 0.146, PBLUC_HILL_SLOPE 1.5, PBLUC_R_SQUARED 0.683, read-out: LUCIFERASE INFECTION ASSAY - IC50”, the IC50 stood at 1.42 µM.
As to `COC(=O)C1=C(C)NC(C)=C(C(=O)OC)C1c1cc(NC(=O)c2cccc(OC(F)F)c2)ccc1OC(F)F`, the IC90 was found to be 8.9 µM. The half-inhibitory concentration (IC50) (PBLUC_HILL_SLOPE 3.17, PBLUC_R_SQUARED 0.755, read-out: LUCIFERASE INFECTION ASSAY - IC50) is 4.45 µM.
Regarding `NC(=O)NC(=O)C(Nc1ccc(Oc2ccccc2)cc1)c1ccccc1` (centres undefined), the IC90 is > 10 µM. Besides, the IC50 under setting [1] is > 10 µM.
In the case of `Fc1ccc(N2c3cc(F)ccc3N=C(c3ccccc3)C2c2ccccc2)cc1` (centres undefined), the 90% effect concentration (IC90) was > 8.32 µM. Besides, for the setting “FFLUC_HILL_SLOPE 13.2, FFLUC_R_SQUARED 0.317, HEPG2TOX_HILL_SLOPE 1.35, HEPG2TOX_R_SQUARED 0.526, PBLUC_HILL_SLOPE 1.66, PBLUC_R_SQUARED 0.328, read-out: LUCIFERASE INFECTION ASSAY - IC50”, the IC50 is 5.47 µM.
Take `CS(=O)(=O)c1ccc(-c2cnc3ccc(Cc4ccc(F)cc4)nn23)cc1`: the IC90 was 3.4 µM. Moreover, the IC50 under setting [1] was 2.9 µM.
Consider `Cc1ccc(C)c(-n2nnnc2SCC(=O)Nc2nc(-c3ccccn3)cs2)c1`, for which the IC90 is > 10 µM. Also, the IC50 (PBLUC_HILL_SLOPE 1.88, PBLUC_R_SQUARED 0.631, read-out: LUCIFERASE INFECTION ASSAY - IC50) turned out to be 5.63 µM.
For `N#Cc1cc(NS(=O)(=O)c2c[nH]c(C(=O)N3CCCC3)c2)ccc1Cl`, the IC90 was > 10 µM. In addition, the IC50 (PBLUC_HILL_SLOPE 1.14, PBLUC_R_SQUARED 0.85, read-out: LUCIFERASE INFECTION ASSAY - IC50) is 5.33 µM.
Regarding `OCc1ccccc1-c1cn2c(-c3ccc(Cl)cc3)cnc2cn1`, the IC90 was determined as 3.81 µM. For the same molecule, where the note is “PBLUC_HILL_SLOPE 13.7, PBLUC_R_SQUARED 0.696, read-out: LUCIFERASE INFECTION ASSAY - IC50”, the IC50 came to 3.25 µM.
For the molecule `Cc1csc(SCC(=O)c2cc(C)n(-c3ccccc3)c2C)n1`, the IC90 stood at 0.219 µM. Also, under “PBLUC_HILL_SLOPE 0.985, PBLUC_R_SQUARED 0.172, read-out: LUCIFERASE INFECTION ASSAY - IC50”, the IC50 amounted to 0.0235 µM.
As for `CCCCCC1/C(=N\O)CC(c2ccccc2)N(C)C1c1ccccc1` (centres undefined), the IC90 was > 9.42 µM. In addition, the half-maximal inhibitory concentration (IC50) (FFLUC_HILL_SLOPE 1.59, FFLUC_R_SQUARED 0.859, read-out: LUCIFERASE INFECTION ASSAY - IC50) was > 9.42 µM.
As for `Cc1ccc(OCC(O)CN2CCc3ccccc3C2)c(C)c1` (centres undefined), the concentration for an effect of 90% (IC90) is > 9.49 µM. The IC50 under setting [1] is > 9.49 µM.
For the molecule `CC(=O)c1cccc(-c2cnc3cnc(-c4cccc(C(N)=O)c4)cn23)c1`, the IC90 is > 9.26 µM. Besides, the IC50 (PBLUC_HILL_SLOPE 1.58, PBLUC_R_SQUARED 0.572, read-out: LUCIFERASE INFECTION ASSAY - IC50) was 3.69 µM.
Consider `O=C(Cc1cccc2ccccc12)NCC(=O)Nc1nc(-c2ccccc2)cs1`, for which the IC90 was > 10 µM. Under setting [1], the IC50 is > 10 µM.
Take `Cc1ccc(-c2oc3ccccc3c(=O)c2O)cc1`: the IC90 is > 13.1 µM. Further, the IC50 under setting [1] is > 13.1 µM.
In the case of `COc1ccccc1-c1nc(COC(=O)c2cccnc2SC)cs1`, the IC90 was > 10 µM. For the same molecule, the IC50 under setting [1] was > 10 µM.
Consider `Cc1ccc(N2C(=O)/C(=C\c3ccc4c(c3)OCO4)N=C2SCC(=O)NCC2CCCO2)cc1` (centres undefined), for which the IC90 is > 10 µM. For the same molecule, the IC50 under setting [1] was > 10 µM.
`Cc1c(Cl)c(=O)[nH]c2ccccc12`: the IC90 is > 17 µM. Moreover, the IC50 (HEPG2TOX_HILL_SLOPE 0.732, HEPG2TOX_R_SQUARED 0.944, PBLUC_HILL_SLOPE 0.944, PBLUC_R_SQUARED 0.141, read-out: LUCIFERASE INFECTION ASSAY - IC50) was > 17 µM.
`CCOC(=O)C(c1ccc(Cl)cc1)N1CCN(C(=O)/C=C/c2ccc(OC)c(OC)c2)CC1` (centres undefined): the IC90 turned out to be 3.62 µM. Further, the 50% inhibitory concentration (IC50) (PBLUC_HILL_SLOPE 18.4, PBLUC_R_SQUARED 0.744, read-out: LUCIFERASE INFECTION ASSAY - IC50) stood at 3.21 µM.

By IC50 is commonly meant the concentration that gives 50% inhibition. One may read the IC90 as the point of the concentration-response curve where the effect stands at 90%.
